Like-named read-outs stand apart in the source and are kept apart here.
What was measured:
[1] = biological target: T1, hKDR (Homo sapiens, UniProt P35968); test: Cerep LANCE kinase assay hKDR (S1 assay 32); assay type: biochemical
T1 construct: purchased Cerep (LANCE kinase assay platform, contract assay)

[2] = test system: Colo320; test: cells; assay type: cell-based
[3] = biological target: T2, hp70S6K1 (RPS6KB1) (Homo sapiens, UniProt P23443); test: Cerep LANCE kinase assay hp70S6K1 (S1 assay 31); assay type: biochemical
T2 construct: purchased Cerep (LANCE kinase assay platform, contract assay)

[4] = test system: SNU-C1; test: cells; assay type: cell-based
[5] = test system: ECFC/ADSC co-culture cell nuclei number
[6] = test system: endothelial tube formation in co-cultures of ECFCs and ADSCs treated with VEGF; test: cells; assay type: cell-based, human
[7] = test system: HeLa cells; test: cells; assay type: cell-based; conditions: for EC50: Homo sapiens, HeLa, read-out: CellCycle G2/M;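 as to Hela CellCycMod PI 4N summarized IC50: value tracks stimulation of 4N DNA content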
[8] = test system: SW480; test: cells; assay type: cell-based
[9] = test system: HT-29; test: cells; assay type: cell-based
[10] = test system: HCT116; test: cells; assay type: cell-based
[11] = test system: RKO; test: cells; assay type: cell-based
[12] = test system: HCT116 cells treated with a GSK3β inhibitor; test: cells; assay type: cell-based
[13] = biological target: T3, hJAK2 (Homo sapiens, UniProt O60674); test: Cerep LANCE kinase assay hJAK2 (S1 assay 33); assay type: biochemical
T3 construct: purchased Cerep (LANCE kinase assay platform, contract assay)

[14] = biological target: T4, hFLT3 (Homo sapiens, UniProt P36888); test: Cerep LANCE kinase assay hFLT3 (S1 assay 35); assay type: biochemical
T4 construct: purchased Cerep (LANCE kinase assay platform, contract assay)

[15] = biological target: T5, hGSK3b (Homo sapiens, UniProt P49841); test: Cerep LANCE kinase assay hGSK3b (S1 assay 34); assay type: biochemical
T5 construct: purchased Cerep (LANCE kinase assay platform, contract assay)

[16] = test system: DLD-1; test: cells; assay type: cell-based
[17] = test system: NCI-H716 cells; test: cells; assay type: cell-based, Human; conditions: Homo sapiens
[18] = test system: INS-1E cells; test: cells; assay type: cell-based, rat; conditions: Rattus norvegicus, INS-1E, read-out: Insulin Secretion
[19] = Homo sapiens, HCT-116, read-out: GSK3b inh pretreated_Viability ATP HCT116

T3 sequence (O60674 whole entry): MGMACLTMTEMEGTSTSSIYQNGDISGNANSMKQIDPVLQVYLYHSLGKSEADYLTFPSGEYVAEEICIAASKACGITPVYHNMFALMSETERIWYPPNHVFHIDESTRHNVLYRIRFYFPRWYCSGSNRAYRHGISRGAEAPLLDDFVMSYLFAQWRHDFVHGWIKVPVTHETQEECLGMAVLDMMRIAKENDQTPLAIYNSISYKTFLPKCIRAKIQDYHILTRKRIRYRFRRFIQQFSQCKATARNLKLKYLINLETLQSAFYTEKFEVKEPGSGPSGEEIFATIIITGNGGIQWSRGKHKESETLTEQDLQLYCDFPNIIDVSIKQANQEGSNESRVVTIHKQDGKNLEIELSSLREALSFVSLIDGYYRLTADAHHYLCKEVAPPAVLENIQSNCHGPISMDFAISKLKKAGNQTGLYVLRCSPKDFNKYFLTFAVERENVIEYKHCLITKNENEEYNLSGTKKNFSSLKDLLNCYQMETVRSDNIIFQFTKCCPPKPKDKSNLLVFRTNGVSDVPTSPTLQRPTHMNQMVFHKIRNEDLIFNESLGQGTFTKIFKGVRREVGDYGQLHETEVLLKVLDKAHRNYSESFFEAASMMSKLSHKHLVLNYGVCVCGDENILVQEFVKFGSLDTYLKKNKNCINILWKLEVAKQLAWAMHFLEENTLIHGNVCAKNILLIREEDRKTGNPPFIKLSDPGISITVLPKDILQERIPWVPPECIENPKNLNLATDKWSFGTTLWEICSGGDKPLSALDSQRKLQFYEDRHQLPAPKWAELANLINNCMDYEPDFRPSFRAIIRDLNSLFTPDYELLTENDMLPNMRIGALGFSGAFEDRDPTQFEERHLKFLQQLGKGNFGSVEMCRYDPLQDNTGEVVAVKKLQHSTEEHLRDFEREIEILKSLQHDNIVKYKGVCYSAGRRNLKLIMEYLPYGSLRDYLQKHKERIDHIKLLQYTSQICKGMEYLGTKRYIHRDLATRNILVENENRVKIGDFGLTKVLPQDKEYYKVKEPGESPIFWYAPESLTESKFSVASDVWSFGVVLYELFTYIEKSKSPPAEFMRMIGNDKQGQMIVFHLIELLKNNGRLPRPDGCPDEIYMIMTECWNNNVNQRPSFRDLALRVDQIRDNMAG
T1 sequence (P35968 20-1356): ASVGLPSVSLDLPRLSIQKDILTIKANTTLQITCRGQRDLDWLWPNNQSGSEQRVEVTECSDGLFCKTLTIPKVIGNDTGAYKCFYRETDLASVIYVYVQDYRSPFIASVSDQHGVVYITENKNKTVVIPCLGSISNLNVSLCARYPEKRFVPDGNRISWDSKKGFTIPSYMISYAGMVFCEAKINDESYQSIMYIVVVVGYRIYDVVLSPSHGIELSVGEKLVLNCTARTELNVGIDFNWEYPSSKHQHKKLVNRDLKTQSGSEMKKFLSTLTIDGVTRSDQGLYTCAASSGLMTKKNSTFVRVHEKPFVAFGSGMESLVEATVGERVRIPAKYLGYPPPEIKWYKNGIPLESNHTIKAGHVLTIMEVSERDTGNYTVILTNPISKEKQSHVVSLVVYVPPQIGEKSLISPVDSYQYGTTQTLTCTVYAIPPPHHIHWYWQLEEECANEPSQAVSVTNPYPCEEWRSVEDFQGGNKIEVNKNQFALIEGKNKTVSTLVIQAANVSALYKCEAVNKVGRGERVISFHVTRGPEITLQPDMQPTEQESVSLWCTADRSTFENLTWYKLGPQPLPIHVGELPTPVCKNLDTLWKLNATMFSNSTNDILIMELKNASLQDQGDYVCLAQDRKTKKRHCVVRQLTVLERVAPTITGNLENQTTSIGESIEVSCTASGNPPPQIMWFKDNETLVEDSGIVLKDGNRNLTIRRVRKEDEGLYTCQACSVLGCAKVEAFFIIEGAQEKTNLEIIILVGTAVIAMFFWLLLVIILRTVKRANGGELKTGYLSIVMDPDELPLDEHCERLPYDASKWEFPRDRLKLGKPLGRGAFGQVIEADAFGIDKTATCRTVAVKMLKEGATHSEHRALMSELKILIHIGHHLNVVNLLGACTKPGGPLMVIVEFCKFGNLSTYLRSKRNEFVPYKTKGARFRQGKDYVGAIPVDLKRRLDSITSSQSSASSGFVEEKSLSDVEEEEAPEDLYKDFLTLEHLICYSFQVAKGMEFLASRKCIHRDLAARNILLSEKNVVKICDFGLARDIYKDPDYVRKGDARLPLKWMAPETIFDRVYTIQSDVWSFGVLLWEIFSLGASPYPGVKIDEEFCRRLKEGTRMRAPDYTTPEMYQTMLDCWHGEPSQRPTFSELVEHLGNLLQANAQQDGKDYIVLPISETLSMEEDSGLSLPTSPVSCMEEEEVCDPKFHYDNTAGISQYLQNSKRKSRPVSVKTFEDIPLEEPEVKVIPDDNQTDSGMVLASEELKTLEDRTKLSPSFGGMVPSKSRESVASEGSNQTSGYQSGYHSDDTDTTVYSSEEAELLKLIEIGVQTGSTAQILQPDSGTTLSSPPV
T4 sequence (P36888 27-993): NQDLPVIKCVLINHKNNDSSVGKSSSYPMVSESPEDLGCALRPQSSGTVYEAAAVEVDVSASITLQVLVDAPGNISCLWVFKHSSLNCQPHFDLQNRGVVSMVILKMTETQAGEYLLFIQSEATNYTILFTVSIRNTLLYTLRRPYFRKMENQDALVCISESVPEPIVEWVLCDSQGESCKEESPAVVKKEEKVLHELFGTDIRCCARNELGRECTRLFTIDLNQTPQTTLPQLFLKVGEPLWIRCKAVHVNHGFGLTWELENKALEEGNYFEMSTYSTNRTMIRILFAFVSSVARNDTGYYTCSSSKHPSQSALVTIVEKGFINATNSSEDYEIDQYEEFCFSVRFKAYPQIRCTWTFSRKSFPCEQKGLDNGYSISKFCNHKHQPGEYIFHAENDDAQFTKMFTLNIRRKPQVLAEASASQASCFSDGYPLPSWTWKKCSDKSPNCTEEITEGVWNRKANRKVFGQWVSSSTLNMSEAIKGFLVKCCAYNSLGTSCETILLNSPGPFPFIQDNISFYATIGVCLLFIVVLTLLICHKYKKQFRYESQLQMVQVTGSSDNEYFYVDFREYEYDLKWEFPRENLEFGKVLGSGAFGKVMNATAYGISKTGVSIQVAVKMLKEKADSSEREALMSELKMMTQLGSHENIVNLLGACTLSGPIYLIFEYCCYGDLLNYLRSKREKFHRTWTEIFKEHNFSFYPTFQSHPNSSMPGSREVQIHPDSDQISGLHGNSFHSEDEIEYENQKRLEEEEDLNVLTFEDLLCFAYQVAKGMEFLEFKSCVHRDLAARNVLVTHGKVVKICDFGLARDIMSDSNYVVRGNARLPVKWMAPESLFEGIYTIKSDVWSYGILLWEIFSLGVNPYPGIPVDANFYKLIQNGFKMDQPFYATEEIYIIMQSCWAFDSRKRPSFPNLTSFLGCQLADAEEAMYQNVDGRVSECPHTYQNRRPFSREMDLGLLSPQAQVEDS
T5 sequence (P49841 whole entry): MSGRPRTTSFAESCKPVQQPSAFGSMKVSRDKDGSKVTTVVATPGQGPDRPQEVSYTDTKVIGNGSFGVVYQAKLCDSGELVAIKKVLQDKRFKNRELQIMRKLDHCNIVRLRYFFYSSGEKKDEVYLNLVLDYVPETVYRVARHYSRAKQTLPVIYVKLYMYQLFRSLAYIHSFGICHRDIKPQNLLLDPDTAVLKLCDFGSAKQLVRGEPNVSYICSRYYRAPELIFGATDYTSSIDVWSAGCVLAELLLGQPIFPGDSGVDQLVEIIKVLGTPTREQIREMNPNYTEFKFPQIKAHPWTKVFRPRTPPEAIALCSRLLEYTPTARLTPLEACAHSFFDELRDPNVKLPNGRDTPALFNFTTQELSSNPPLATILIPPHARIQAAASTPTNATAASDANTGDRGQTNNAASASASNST
T2 sequence (P23443 whole entry): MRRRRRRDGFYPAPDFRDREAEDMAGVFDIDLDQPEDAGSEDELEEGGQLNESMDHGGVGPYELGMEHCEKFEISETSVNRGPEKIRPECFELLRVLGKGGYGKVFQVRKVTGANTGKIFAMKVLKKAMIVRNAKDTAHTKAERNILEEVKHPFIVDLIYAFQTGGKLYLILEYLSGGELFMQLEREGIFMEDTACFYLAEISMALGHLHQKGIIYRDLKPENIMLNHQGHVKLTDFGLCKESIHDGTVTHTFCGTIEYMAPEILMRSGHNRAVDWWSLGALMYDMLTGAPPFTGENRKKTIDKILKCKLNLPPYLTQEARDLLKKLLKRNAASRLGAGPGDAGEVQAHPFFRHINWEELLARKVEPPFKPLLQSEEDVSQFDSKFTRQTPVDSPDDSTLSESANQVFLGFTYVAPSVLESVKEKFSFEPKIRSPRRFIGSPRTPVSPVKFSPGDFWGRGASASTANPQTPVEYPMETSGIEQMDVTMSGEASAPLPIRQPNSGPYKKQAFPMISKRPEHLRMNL

Nc1nc(=S)c2[nH]cnc2[nH]1 [NCGC00263442-01]
IC50 ([1]; read-out: hKDR LANCE summarized IC50): > 20 µM
IC50 ([2]; read-out: Basal_Viability ATP Colo 320 summarized IC50): 0.373 µM
IC50 ([3]; read-out: hp70S6K1 LANCE summarized IC50): > 20 µM
IC50 ([4]; read-out: Basal_Viability ATP SNU-C1 summarized IC50): 4.4 µM
IC50 ([5]; read-out: VEGF_ADSC\ECFC Angio Hoechst NucArea summarized IC50): > 10 µM
IC50 ([6]; read-out: VEGF_ADSC\ECFC Angio CD31 TubeArea summarized IC50): 0.622 µM
IC50 ([7]; read-out: Hela CellCycMod PI 2N summarized IC50): > 10 µM
IC50 ([7]; read-out: Hela CellCycMod PI 4N summarized IC50): > 10 µM
IC50 ([7]; read-out: Hela CellCycMod PI Cell Number summarized IC50): > 10 µM
IC50 ([7]; read-out: Hela CellCycMod PI MI summarized IC50): > 10 µM
IC50 ([7]; read-out: Hela CellCycMod PI S Phase summarized IC50): > 10 µM
IC50 ([8]; read-out: Basal_Viability ATP SW480 summarized IC50): 0.402 µM
IC50 ([9]; read-out: Basal_Viability ATP HT-29 summarized IC50): 0.0493 µM
IC50 ([10]; read-out: Basal_Viability ATP HCT116 summarized IC50): 0.139 µM
IC50 ([11]; read-out: Basal_Viability ATP RKO summarized IC50): 0.343 µM
IC50 ([12]; read-out: GSK3b inh pretreated_Viability ATP HCT116 summarized IC50): 0.163 µM
IC50 ([13]; read-out: hJAK2 LANCE summarized IC50): > 20 µM
IC50 ([14]; read-out: hFLT3 LANCE summarized IC50): > 20 µM
IC50 ([15]; read-out: hGSK3b LANCE summarized IC50): > 20 µM
IC50 ([16]; read-out: Basal_Viability ATP DLD-1 summarized IC50): 0.108 µM

O=C(O)c1ccc(-n2nc(-c3ccccc3O)nc2-c2ccccc2O)cc1 [NCGC00263572-01]
hKDR LANCE IC50/EC50 ([1]; assay number 32): > 20 µM
Basal_Viability ATP Colo 320 IC50/EC50 ([2]; assay number 27): 0.4085 µM
hp70S6K1 LANCE IC50/EC50 ([3]; assay number 31): > 20 µM
Basal_Viability ATP SNU-C1 IC50/EC50 ([4]; assay number 30): 0.2328 µM
VEGF_ADSC\ECFC Angio Hoechst NucArea IC50/EC50 [5]: > 10 µM
VEGF_ADSC\ECFC Angio CD31 TubeArea IC50/EC50 [6]: 2.0862 µM
Hela CellCycMod PI 2N IC50/EC50 ([7]; assay number 14, 2N): > 10 µM
Hela CellCycMod PI 4N IC50/EC50 ([7]; assay number 16, 4N): > 10 µM
Hela CellCycMod PI MI IC50/EC50 ([7]; assay number 17, MI): > 10 µM
Hela CellCycMod PI Cell Number IC50/EC50 ([7]; assay number 18, cell number): 5.678 µM
Basal_Viability ATP SW480 IC50/EC50 ([8]; assay number 24): 0.0776 µM
Basal_Viability ATP HT-29 IC50/EC50 ([9]; assay number 28): 0.5159 µM
Basal_Viability ATP HCT116 IC50/EC50 ([10]; assay number 25, basal): 0.4376 µM
Basal_Viability ATP RKO IC50/EC50 ([11]; assay number 29): 0.1001 µM
GSK3b inh pretreated_Viability ATP HCT116 IC50/EC50 ([12]; assay number 26, GSK3b inhibitor pretreated): 0.2423 µM
hJAK2 LANCE IC50/EC50 ([13]; assay number 33): 18.21 µM
hFLT3 LANCE IC50/EC50 ([14]; assay number 35): > 20 µM
hGSK3b LANCE IC50/EC50 ([15]; assay number 34): > 20 µM
Basal_Viability ATP DLD-1 IC50/EC50 ([16]; assay number 23): 0.6507 µM

COc1ccc(-c2nc3ccc(C4=NNC(=O)CC4C)cc3[nH]2)cc1 (stereo not drawn) [Pimobendan]
IC50 ([1]; read-out: KDR): > 20 µM
EC50 ([17]; IC50 / EC50, NCI-H716, read-out: GLP 1 Secretion): > 10 µM
IC50 ([3]; read-out: p70S6K1): > 20 µM
IC50 ([6]; Homo sapiens, IC50 / EC50, endothelial tube area, ADSC/ECFC co-culture, read-out: Anti-Angiogenesis): 2.89 µM
EC50 ([7]; IC50 / EC50): > 10 µM
IC50 ([8]; Homo sapiens, SW480, basal, read-out: Basal_Viability ATP SW480): > 20 µM
IC50 ([10]; Homo sapiens, HCT-116, basal, read-out: Basal_Viability ATP HCT116): 16 µM
IC50 [12, 19]: > 20 µM
IC50 ([13]; read-out: JAK2): > 20 µM
EC50 ([18]; IC50 / EC50): > 10 µM
IC50 ([14]; read-out: FLT3): 5.13 µM
IC50 ([15]; read-out: GSK3b): > 20 µM
IC50 ([16]; Homo sapiens, DLD-1, basal, read-out: Basal_Viability ATP DLD-1): > 20 µM

O=c1[nH]c(=O)n([C@H]2C[C@H](O)[C@@H](CO)O2)cc1C(F)(F)F [Trifluridine]
IC50 ([1]; kinase assay, read-out: KDR): > 20 µM
IC50 ([2]; Homo sapiens, COLO 320, read-out: Basal_Viability ATP Colo 320): > 20 µM
EC50 ([17]; NCI-H716, read-out: GLP 1 Secretion): > 10 µM
IC50 ([3]; kinase assay, read-out: p70S6K1): > 20 µM
IC50 ([4]; Homo sapiens, SNU-C1, read-out: Basal_Viability ATP SNU-C1): > 20 µM
EC50 [7]: > 10 µM
IC50 ([8]; Homo sapiens, SW480, read-out: Basal_Viability ATP SW480): > 20 µM
IC50 ([9]; Homo sapiens, HT-29, read-out: Basal_Viability ATP HT-29): > 20 µM
IC50 [12, 19]: 1.25 µM
IC50 ([13]; kinase assay, read-out: JAK2): > 20 µM
EC50 [18]: > 10 µM
IC50 ([14]; kinase assay, read-out: FLT3): > 20 µM
IC50 ([15]; kinase assay, read-out: GSK3b): > 20 µM
IC50 ([16]; Homo sapiens, DLD-1, read-out: Basal_Viability ATP DLD-1): > 20 µM

Reference: publication PMC4503722, “Novel Phenotypic Outcomes Identified for a Public Collection of Approved Drugs from a Publicly Accessible Panel of Assays” (PLoS ONE, 2015)
